Experimental findings from patent US8846949B2, “Pyrrolopyrazoles as N-type calcium channel blockers” (Janssen Pharmaceutica NV, priority 2012, dated 2014) are described below.

This test deals with T1, N-type calcium channel α1B (Cav2.2), β3 and α2δ subunits (Homo sapiens, UniProt Q00975).
T1 construct: expressed in transfected cells
Kind of test: Functional assay, antagonism of N-type calcium channel (FDSS calcium mobilization response to KCl depolarization). It is filed as cell-based. Particulars: for inhibition at 0.33 µM: 0.33 μM compound; for inhibition at 0.33 µM / inhibition at 1 µM: FDSS, 50 mM KCl; for IC50: HEK stable cell line, 50 mM KCl depolarization, six-point concentration-response; for inhibition at 1 µM: 1 μM compound. The method, then: A stable cell line (HEK parent) co-expressing the α1B (Cav2.2), β3 and α2δ subunits of the N-type calcium channel subunits was used. These cells were routinely grown as monolayers in low glucose-containing Dulbecco's Modified Eagle Medium supplemented with 10% FBS, 2 mM L-glutamine, 100 I.U./mL penicillin, 100 μg/mL streptomycin, 400 μg/mL G418 and 200 μg/mL Zeocin (split ratio=1:5). Cells were maintained in 5% CO2 at 37° C. Compounds of Formula (I) were prepared as 10 mM stocks in DMSO from neat compound, if available. Otherwise, the 5 or 10 mM DMSO stock solutions provided in-house were used.
Calcium mobilization responses to KCl depolarization were evaluated by measuring the intensity of calcium-mediated fluorescent signal in the presence of BD Calcium Assay Dye (BD Biosciences, Franklin Lakes, N.J., U.S.A.), utilizing a Functional Drug Screening System (FDSS) by Hamamatsu Corporation (Bridgewater, N.J. U.S.A.).
Twenty-four hr prior to assay, cells were seeded in clear-base poly-D-lysine-coated 384-well plates (BD Biosciences) at a density of 5,000 cells per well in culture medium and grown overnight in 5% CO2 at 37° C. On the day of assay, growth media were removed, and cells were loaded with BD calcium assay dye (BD Biosciences) for 35 min at 37° C. under 5% CO2 and then for 25 min at room temp. Utilizing the FDSS, cells were exposed to representative compounds of Formula (I) at varying concentrations, and intracellular calcium was measured for 5 min prior to the addition of 50 mM KCl for an additional 3 min of measurement.
IC50 values for representative compounds of Formula (I) were determined from six-point concentration-response experiments and represent the concentration of said compound required to inhibit 50% of the maximal response. Maximal fluorescence intensity (FI) achieved upon addition of 50 mM KCl was exported from the FDSS software and further analyzed using GraphPad Prism 3.02 (Graph Pad Software Inc., San Diego, Calif., U.S.A.). Data were normalized to the maximum average counts from quadruplicate wells for each condition in the presence of 50 mM KCl and to the minimum average counts in the presence of buffer. Theoretical curves were generated using nonlinear regression curve-fitting analysis of either sigmoidal concentration-response or sigmoidal concentration-response (variable slope), and the IC50 values with the best-fit curve determined by GraphPad Prism were reported.

T1 sequence (Q00975 whole entry): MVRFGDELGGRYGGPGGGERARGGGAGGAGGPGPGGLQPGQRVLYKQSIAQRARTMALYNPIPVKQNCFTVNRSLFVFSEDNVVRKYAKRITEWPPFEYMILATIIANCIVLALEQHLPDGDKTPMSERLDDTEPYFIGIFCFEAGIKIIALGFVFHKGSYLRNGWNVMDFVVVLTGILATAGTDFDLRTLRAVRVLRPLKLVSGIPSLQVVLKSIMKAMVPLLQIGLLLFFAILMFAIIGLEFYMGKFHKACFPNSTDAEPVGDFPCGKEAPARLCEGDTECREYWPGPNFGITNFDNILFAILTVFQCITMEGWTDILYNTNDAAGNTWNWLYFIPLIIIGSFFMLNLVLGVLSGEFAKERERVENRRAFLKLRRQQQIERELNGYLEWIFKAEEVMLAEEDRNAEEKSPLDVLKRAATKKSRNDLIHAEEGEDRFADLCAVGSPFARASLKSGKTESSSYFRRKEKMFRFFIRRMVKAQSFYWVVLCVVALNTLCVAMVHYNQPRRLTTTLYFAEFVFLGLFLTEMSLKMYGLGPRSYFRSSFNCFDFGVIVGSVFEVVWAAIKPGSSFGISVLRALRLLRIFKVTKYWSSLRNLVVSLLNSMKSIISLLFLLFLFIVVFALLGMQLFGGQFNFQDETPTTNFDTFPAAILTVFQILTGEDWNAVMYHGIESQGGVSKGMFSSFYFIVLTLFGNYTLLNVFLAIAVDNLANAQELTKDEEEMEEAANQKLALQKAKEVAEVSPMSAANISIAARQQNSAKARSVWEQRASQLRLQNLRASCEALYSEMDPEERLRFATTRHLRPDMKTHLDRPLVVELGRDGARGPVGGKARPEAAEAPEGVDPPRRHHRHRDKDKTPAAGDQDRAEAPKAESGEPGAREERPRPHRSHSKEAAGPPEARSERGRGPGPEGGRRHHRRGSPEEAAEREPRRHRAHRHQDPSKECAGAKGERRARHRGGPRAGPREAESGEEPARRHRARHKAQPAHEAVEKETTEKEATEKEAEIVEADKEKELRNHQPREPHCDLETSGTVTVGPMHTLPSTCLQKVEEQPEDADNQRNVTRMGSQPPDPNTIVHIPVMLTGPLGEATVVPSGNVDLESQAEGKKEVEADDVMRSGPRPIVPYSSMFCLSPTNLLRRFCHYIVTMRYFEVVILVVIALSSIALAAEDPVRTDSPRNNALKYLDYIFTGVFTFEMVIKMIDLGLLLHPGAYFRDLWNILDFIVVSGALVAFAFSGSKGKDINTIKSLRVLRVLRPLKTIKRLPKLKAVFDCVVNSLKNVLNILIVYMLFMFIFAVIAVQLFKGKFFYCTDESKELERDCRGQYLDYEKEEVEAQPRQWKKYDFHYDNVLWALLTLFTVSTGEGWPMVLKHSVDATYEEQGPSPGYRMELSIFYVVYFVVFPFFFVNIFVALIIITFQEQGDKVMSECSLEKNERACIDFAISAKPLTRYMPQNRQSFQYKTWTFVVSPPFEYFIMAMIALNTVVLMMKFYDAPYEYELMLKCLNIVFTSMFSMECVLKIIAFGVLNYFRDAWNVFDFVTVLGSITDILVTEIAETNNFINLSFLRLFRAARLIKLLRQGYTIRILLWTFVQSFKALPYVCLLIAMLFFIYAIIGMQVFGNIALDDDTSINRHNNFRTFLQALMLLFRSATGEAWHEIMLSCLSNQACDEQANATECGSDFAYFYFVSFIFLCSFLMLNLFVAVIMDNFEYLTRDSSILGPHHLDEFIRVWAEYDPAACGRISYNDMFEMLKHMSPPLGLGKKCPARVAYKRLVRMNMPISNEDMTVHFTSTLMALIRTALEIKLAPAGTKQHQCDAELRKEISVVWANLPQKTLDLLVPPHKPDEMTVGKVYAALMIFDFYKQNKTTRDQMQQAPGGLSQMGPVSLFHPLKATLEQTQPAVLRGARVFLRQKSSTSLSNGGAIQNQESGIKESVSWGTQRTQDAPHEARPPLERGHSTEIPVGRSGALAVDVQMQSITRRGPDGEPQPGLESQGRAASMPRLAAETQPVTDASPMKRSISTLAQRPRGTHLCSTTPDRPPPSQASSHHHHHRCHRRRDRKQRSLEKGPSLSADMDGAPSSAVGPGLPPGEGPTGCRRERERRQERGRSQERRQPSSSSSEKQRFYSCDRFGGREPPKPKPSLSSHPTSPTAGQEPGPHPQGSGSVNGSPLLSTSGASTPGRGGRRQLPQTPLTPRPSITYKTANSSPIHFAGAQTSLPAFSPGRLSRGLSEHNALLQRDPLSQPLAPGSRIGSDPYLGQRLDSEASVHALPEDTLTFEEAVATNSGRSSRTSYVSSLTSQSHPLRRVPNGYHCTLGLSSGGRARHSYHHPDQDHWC
T1 sequence (P54284 whole entry partner): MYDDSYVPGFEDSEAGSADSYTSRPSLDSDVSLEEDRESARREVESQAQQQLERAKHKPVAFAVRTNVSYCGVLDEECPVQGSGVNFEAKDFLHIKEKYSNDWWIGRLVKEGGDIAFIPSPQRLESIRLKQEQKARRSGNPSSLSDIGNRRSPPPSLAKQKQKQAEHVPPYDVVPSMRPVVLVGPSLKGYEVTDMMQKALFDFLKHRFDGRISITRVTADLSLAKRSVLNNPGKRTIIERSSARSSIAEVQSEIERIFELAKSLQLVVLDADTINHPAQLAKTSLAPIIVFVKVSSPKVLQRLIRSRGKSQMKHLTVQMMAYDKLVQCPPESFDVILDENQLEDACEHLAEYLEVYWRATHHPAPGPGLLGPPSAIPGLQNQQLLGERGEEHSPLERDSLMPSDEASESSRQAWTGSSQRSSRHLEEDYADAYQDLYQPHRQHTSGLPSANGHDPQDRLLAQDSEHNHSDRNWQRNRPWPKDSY
T1 sequence (P54289 25-956 partner limits assumed): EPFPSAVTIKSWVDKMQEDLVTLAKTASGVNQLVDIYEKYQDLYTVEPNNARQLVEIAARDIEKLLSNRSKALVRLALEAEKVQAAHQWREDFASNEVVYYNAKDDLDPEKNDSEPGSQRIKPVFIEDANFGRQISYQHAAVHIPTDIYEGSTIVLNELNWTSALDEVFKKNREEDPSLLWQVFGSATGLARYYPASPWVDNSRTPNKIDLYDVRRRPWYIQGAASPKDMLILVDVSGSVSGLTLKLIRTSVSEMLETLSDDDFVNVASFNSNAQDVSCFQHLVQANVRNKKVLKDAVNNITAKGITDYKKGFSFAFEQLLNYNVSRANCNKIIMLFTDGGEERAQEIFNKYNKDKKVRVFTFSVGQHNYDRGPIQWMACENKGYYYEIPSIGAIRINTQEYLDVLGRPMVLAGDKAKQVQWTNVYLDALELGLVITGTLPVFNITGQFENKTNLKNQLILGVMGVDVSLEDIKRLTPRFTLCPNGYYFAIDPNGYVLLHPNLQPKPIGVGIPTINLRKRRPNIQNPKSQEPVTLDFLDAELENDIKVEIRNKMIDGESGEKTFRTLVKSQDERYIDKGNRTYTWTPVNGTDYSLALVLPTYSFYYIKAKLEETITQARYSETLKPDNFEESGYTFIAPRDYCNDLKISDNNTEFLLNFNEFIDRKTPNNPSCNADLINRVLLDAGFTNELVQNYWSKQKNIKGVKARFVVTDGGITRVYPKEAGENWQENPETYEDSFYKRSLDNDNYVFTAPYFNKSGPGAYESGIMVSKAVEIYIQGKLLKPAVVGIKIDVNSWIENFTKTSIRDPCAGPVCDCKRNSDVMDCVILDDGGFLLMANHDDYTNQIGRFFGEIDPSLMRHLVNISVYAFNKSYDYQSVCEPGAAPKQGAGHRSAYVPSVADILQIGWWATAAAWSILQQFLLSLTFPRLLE
T1 sequence (P54289 957-1103 partner limits assumed): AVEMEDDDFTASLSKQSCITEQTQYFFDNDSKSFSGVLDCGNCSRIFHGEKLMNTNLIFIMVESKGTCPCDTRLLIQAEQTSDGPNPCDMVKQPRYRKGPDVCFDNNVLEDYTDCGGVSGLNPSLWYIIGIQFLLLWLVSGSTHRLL

As usually defined, the inhibition is the relative decrease from the control value, in per cent. As usually defined, the IC50 is the concentration at which inhibition is half-maximal. Turning to `COc1cc(F)ccc1-n1nc2c(c1-c1ccc(Cl)cc1)CN(S(C)(=O)=O)C2` [Cpd 70, 3-(4-Chlorophenyl)-2-(4-fluoro-2-methoxyphenyl)-5-(methylsulfonyl)-2,4,5,6-tetrahydropyrrolo[3,4-c]pyrazole], the inhibition at 0.33 µM stood at 74% and the half-maximal inhibitory concentration (IC50) was found to be 75 nM.

In the case of `COc1cc(C)ccc1-n1nc2c(c1-c1ccc(Cl)cc1)CN(S(C)(=O)=O)C2` [Cpd 74, 3-(4-Chlorophenyl)-2-(2-methoxy-4-methylphenyl)-5-(methylsulfonyl)-2,4,5,6-tetrahydropyrrolo[3,4-c]pyrazole], the inhibition at 0.33 µM came out at 82% and the IC50 stood at 47 nM.

With `COc1ccc(-n2nc3c(c2-c2ccc(Cl)cc2)CN(S(=O)(=O)N2CCC(C)CC2)C3)c(F)c1` [Cpd 80, 3-(4-Chlorophenyl)-2-(2-fluoro-4-methoxyphenyl)-5-[(4-methylpiperidin-1-yl)sulfonyl]-2,4,5,6-tetrahydropyrrolo[3,4-c]pyrazole], the inhibition at 0.33 µM is 62% and the IC50 came to 140 nM.

In the case of `CCc1ccccc1-n1nc2c(c1-c1ccc(Cl)cc1)CN(S(=O)(=O)C(F)(F)F)C2` [Cpd 3, 3-(4-Chlorophenyl)-2-(2-ethylphenyl)-5-[(trifluoromethyl)sulfonyl]-2,4,5,6-tetrahydropyrrolo[3,4-c]pyrazole], the IC50 was 150 nM.

With `N#Cc1cccc(N2Cc3nn(-c4ccccc4OC(F)(F)F)c(-c4ccc(Cl)cc4)c3C2)c1` [Cpd 23, 3-[3-(4-Chlorophenyl)-2-[2-(trifluoromethoxy)phenyl]-2,6-dihydropyrrolo[3,4-c]pyrazol-5(4H)-yl]benzonitrile], the inhibition at 1 µM is 52%.

`CC(C)S(=O)(=O)N1Cc2nn(-c3ccccc3C(F)(F)F)c(-c3ccc(Cl)cc3)c2C1` [Cpd 16, 3-(4-Chlorophenyl)-5-[(1-methylethyl)sulfonyl]-2-[2-(trifluoromethyl)phenyl]-2,4,5,6-tetrahydropyrrolo[3,4-c]pyrazole]: the IC50 is 160 nM.

With `O=S1(=O)CCC(S(=O)(=O)N2Cc3nn(-c4ccccc4OC(F)(F)F)c(-c4ccc(Cl)cc4)c3C2)C1` (stereo not shown) [Cpd 48, 3-(4-Chlorophenyl)-5-[(1,1-dioxidotetrahydrothiophen-3-yl)sulfonyl]-2-[2-(trifluoromethoxy)phenyl]-2,4,5,6-tetrahydropyrrolo[3,4-c]pyrazole], the IC50 worked out at 77 nM.

In the case of `COc1ccc(-n2nc3c(c2-c2ccc(Cl)cc2)CN(S(C)(=O)=O)C3)c(C)c1` [Cpd 66, 3-(4-Chlorophenyl)-2-(4-methoxy-2-methylphenyl)-5-(methylsulfonyl)-2,4,5,6-tetrahydropyrrolo[3,4-c]pyrazole], the inhibition at 0.33 µM came out at 35%.

On to `COc1ccc(-n2nc3c(c2-c2ccc(Cl)cc2)CN(S(=O)(=O)C(C)C)C3)c(F)c1` [Cpd 79, 3-(4-Chlorophenyl)-2-(2-fluoro-4-methoxyphenyl)-5-[(1-methylethyl)sulfonyl]-2,4,5,6-tetrahydropyrrolo[3,4-c]pyrazole], for which the inhibition at 0.33 µM worked out at 61% and the IC50 came out at 180 nM.

On to `Cc1ccc(S(=O)(=O)N2Cc3nn(-c4ccccc4C(F)(F)F)c(-c4ccc(Cl)cc4)c3C2)cc1` [Cpd 17, 3-(4-Chlorophenyl)-5-[(4-methylphenyl)sulfonyl]-2-[2-(trifluoromethyl)phenyl]-2,4,5,6-tetrahydropyrrolo[3,4-c]pyrazole], for which the IC50 was 300 nM.

With `COc1ccccc1-n1nc2c(c1-c1ccc(Cl)cc1)CN(S(=O)(=O)CCN1C(=O)c3ccccc3C1=O)C2` [Cpd 38, 2-(2-{[3-(4-Chlorophenyl)-2-(2-methoxyphenyl)-2,6-dihydropyrrolo[3,4-c]pyrazol-5(4H)-yl]sulfonyl}ethyl)-1H-isoindole-1,3(2H)-dione], the IC50 amounted to 53 nM.

For the compound `COc1cc(C)ccc1-n1nc2c(c1-c1ccc(Cl)cc1)CN(S(=O)(=O)N1CCC(C)CC1)C2` [Cpd 77, 3-(4-Chlorophenyl)-2-(2-methoxy-4-methylphenyl)-5-[(4-methylpiperidin-1-yl)sulfonyl]-2,4,5,6-tetrahydropyrrolo[3,4-c]pyrazole], the inhibition at 0.33 µM amounted to 82% and the IC50 worked out at 56 nM.

Take `COc1ccccc1-n1nc2c(c1-c1ccc(Cl)cc1)CN(C(=O)CNC(=O)OC(C)(C)C)C2` [Cpd 29, tert-Butyl{2-[3-(4-chlorophenyl)-2-(2-methoxyphenyl)-2,6-dihydropyrrolo[3,4-c]pyrazol-5(4H)-yl]-2-oxoethyl}carbamate]: the IC50 came out at 180 nM.

Turning to `COc1ccc(-n2nc3c(c2-c2ccc(Cl)cc2)CN(S(=O)(=O)C2CCCCC2)C3)c(C)c1` [Cpd 68, 3-(4-Chlorophenyl)-5-(cyclohexylsulfonyl)-2-(4-methoxy-2-methylphenyl)-2,4,5,6-tetrahydropyrrolo[3,4-c]pyrazole], the inhibition at 0.33 µM was 71% and the 50% inhibitory concentration (IC50) was 130 nM.

In the case of `COc1cc(F)ccc1-n1nc2c(c1-c1ccc(Cl)cc1)CN(S(=O)(=O)C1CCCCC1)C2` [Cpd 72, 3-(4-Chlorophenyl)-5-(cyclohexylsulfonyl)-2-(4-fluoro-2-methoxyphenyl)-2,4,5,6-tetrahydropyrrolo[3,4-c]pyrazole], the inhibition at 0.33 µM is 82% and the IC50 turned out to be 95 nM.

For `CC(C)(C)OC(=O)N1Cc2nn(-c3ccccc3C(F)(F)F)c(-c3ccc(Cl)cc3)c2C1` [Cpd 14, tert-Butyl 3-(4-chlorophenyl)-2-[2-(trifluoromethyl)phenyl]-2,6-dihydropyrrolo[3,4-c]pyrazole-5(4H)-carboxylate], the inhibition at 1 µM came out at 60%.

As to `CCc1ccccc1-n1nc2c(c1-c1ccc(Cl)cc1)CN(C(=O)COC)C2` [Cpd 10, 3-(4-Chlorophenyl)-2-(2-ethylphenyl)-5-(methoxyacetyl)-2,4,5,6-tetrahydropyrrolo[3,4-c]pyrazole], the IC50 turned out to be 280 nM.

As for `CCc1ccccc1-n1nc2c(c1-c1ccc(Cl)cc1)CN(C(=O)CNS(=O)(=O)C(F)(F)F)C2` [Cpd 13, N-{2-[3-(4-Chlorophenyl)-2-(2-ethylphenyl)-2,6-dihydropyrrolo[3,4-c]pyrazol-5(4H)-yl]-2-oxoethyl}-1,1,1-trifluoromethanesulfonamide], the inhibition at 1 µM worked out at 59%.

With `CCc1ccccc1-n1nc2c(c1-c1ccc(Cl)cc1)CN(C(=O)c1ccco1)C2` [Cpd 8, 3-(4-Chlorophenyl)-2-(2-ethylphenyl)-5-(furan-2-ylcarbonyl)-2,4,5,6-tetrahydropyrrolo[3,4-c]pyrazole], the IC50 is 600 nM.

On to `CN(C)S(=O)(=O)N1Cc2nn(-c3ccccc3OC(C)(C)C)c(-c3ccc(Cl)cc3)c2C1` [Cpd 91, 2-(2-tert-Butoxyphenyl)-3-(4-chlorophenyl)-N,N-dimethyl-2,6-dihydropyrrolo[3,4-c]pyrazole-5(4H)-sulfonamide], for which the inhibition at 0.33 µM is 87% and the IC50 was found to be 63 nM.
